Drawing on PubChem BioAssay AID330 (DTP/NCI, 2004), this text covers T/C for 24 compounds.

The assay deals with P388 leukemia ip, CD2F1 mice, survival T/C. In words: NCI In Vivo Anticancer Drug Screen. Data for tumor model P388 Leukemia (intraperitoneal) in CD2F1 (CDF1) mice. To be noted: endpoint: median survival time, higher = longer survival. The essentials:
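Mice carrying the transplanted tumor received test compound or vehicle. Survival was recorded in each group, and the value is the treated-group measurement divided by that of the vehicle-treated control group.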

The mark [1] stands for this setting: dose: 12.5 mg/kg/injection, schedule: Q01DX009 (ip), vehicle: saline.
Setting [2] is: dose: 25.0 mg/kg/injection, schedule: Q01DX009 (ip), vehicle: saline.
Where [3] appears, read: dose: 50.0 mg/kg/injection, schedule: Q01DX009 (ip), vehicle: saline.
Setting [4] is: dose: 100.0 mg/kg/injection, schedule: Q01DX009 (ip), vehicle: saline.
The mark [5] stands for this setting: dose: 200.0 mg/kg/injection, schedule: Q01DX009 (ip), vehicle: saline.
Where [6] appears, read: dose: 50.0 mg/kg/injection, schedule: Q01DX005 (ip), vehicle: saline with Tween-80.
[7] abbreviates: dose: 100.0 mg/kg/injection, schedule: Q01DX005 (ip), vehicle: saline with Tween-80.
The mark [8] stands for this setting: dose: 200.0 mg/kg/injection, schedule: Q01DX005 (ip), vehicle: saline with Tween-80.
Setting [9] is: dose: 60.0 mg/kg/injection, schedule: Q01DX005 (ip), vehicle: Klucel (hydroxypropylcellulose) (HPC).
[10] abbreviates: dose: 120.0 mg/kg/injection, schedule: Q01DX005 (ip), vehicle: Klucel (hydroxypropylcellulose) (HPC).
The mark [11] stands for this setting: dose: 240.0 mg/kg/injection, schedule: Q01DX005 (ip), vehicle: Klucel (hydroxypropylcellulose) (HPC).
Setting [12] is: dose: 50.0 mg/kg/injection, schedule: Q01DX005 (ip), vehicle: Klucel (hydroxypropylcellulose) (HPC).

Values joined by “and” are separate entries in the source; they are usually repeats but may differ in a detail not shown here. Equal entries are not always repeated. Inconclusive results and toxic doses are left out.

`NC(=S)c1ncn(C2OC(CO)C(O)C2O)c1N` (stereo not given): the T/C under setting [1] was 104 % of control; the T/C under setting [2] was 101 % of control; the T/C under setting [3] was 101 % of control; the T/C under setting [4] is 112 % of control; the T/C under setting [5] is 112 % of control; the T/C (dose: 400.0 mg/kg/injection, schedule: Q01DX009 (ip), vehicle: saline) is 101 % of control.

Consider `NNC(=O)C(=O)n1ccnc1`, for which the T/C under setting [6] was 95 % of control, the T/C under setting [7] is 102 % of control and the T/C under setting [8] is 101 % of control.

On to `COC(=O)c1ccc(C(N)=O)nc1`, for which the T/C is 97 % of control (dose: 25.0 mg/kg/injection, schedule: Q04DX002 (ip), vehicle: Klucel (hydroxypropylcellulose) (HPC)); 101 % of control (dose: 50.0 mg/kg/injection, schedule: Q04DX002 (ip), vehicle: Klucel (hydroxypropylcellulose) (HPC)); 96 % of control (dose: 100.0 mg/kg/injection, schedule: Q04DX002 (ip), vehicle: Klucel (hydroxypropylcellulose) (HPC)); 105 % of control (dose: 200.0 mg/kg/injection, schedule: Q04DX002 (ip), vehicle: Klucel (hydroxypropylcellulose) (HPC)).

Take `C=C1ON(C)C(c2ccccc2)C1S(=O)(=O)c1ccccc1` (stereo not given): the T/C is 110 % of control under setting [9], 105 % of control under setting [10] and 98 % of control under setting [11].

For the compound `O=S(OC(c1ccccc1)(C(F)(F)F)C(F)(F)F)OC(c1ccccc1)(C(F)(F)F)C(F)(F)F`, the T/C by setting is: (dose: 32.0 mg/kg/injection, schedule: Q01DX009 (ip), vehicle: Klucel (hydroxypropylcellulose) (HPC)) 97 % of control; (dose: 64.0 mg/kg/injection, schedule: Q01DX009 (ip), vehicle: Klucel (hydroxypropylcellulose) (HPC)) 101 % of control; (dose: 128.0 mg/kg/injection, schedule: Q01DX009 (ip), vehicle: Klucel (hydroxypropylcellulose) (HPC)) 101 % of control.

`Cc1nc(N)c2c3c(sc2n1)CCCC3`: the T/C by setting is: under setting [6], 95 % of control; under setting [7], 97 % of control; under setting [8], 100 % of control.

Regarding `Cc1nc2c(n1C)C(=O)c1nc[nH]c(=O)c1C2=O`, the T/C is 102 % of control (dose: 1.75 mg/kg/injection, schedule: Q01DX005 (ip), vehicle: water); 92 % of control (dose: 3.5 mg/kg/injection, schedule: Q01DX005 (ip), vehicle: water); 96 % of control (dose: 7.0 mg/kg/injection, schedule: Q01DX005 (ip), vehicle: water); 96 % of control (dose: 14.0 mg/kg/injection, schedule: Q01DX005 (ip), vehicle: water).

Turning to `CC(=O)c1ccc(NN=NCCF)cc1`, the T/C was 107 % of control (dose: 1.56 mg/kg/injection, schedule: Q01DX009 (ip), vehicle: water); 154 % of control (dose: 6.25 mg/kg/injection, schedule: Q01DX009 (ip), vehicle: water); 271 % of control (dose: 12.5 mg/kg/injection, schedule: Q01DX009 (ip), vehicle: distilled water + Tween-80).

For `CCOC1(OCC)N(S(=O)(=O)c2ccc(C)cc2)C(=O)C(=O)N1S(=O)(=O)c1ccc(C)cc1`, the T/C runs as follows: (dose: 100.0 mg/kg/injection, schedule: Q04DX002 (ip), vehicle: saline) 100 % of control; (dose: 200.0 mg/kg/injection, schedule: Q04DX002 (ip), vehicle: saline) 106 % of control; (dose: 400.0 mg/kg/injection, schedule: Q04DX002 (ip), vehicle: saline) 103 % of control.

As for `S=C(Nc1ccccc1)SCc1ccc(Cl)cc1`, the T/C by setting is: under setting [3], 104 % of control; under setting [4], 103 % of control; under setting [5], 108 % of control.

For the compound `CC1=NN(C(=O)c2ccccc2)C(=O)C1N=Nc1ccc(Cl)cc1` (stereo not given), the T/C is, setting by setting: (dose: 100.0 mg/kg/injection, schedule: Q01DX001 (ip), vehicle: saline with Tween-80) 94 % of control; (dose: 200.0 mg/kg/injection, schedule: Q01DX001 (ip), vehicle: saline with Tween-80) 94 % of control; (dose: 400.0 mg/kg/injection, schedule: Q01DX001 (ip), vehicle: saline with Tween-80) 88 % of control.

For `COc1cccc(C(Cc2ccccc2)Nc2ccccc2)c1OC` (stereo not given), the T/C (dose: 3.0 mg/kg/injection, schedule: Q01DX005 (ip), vehicle: Klucel (hydroxypropylcellulose) (HPC)) is 94 % of control; the T/C (dose: 6.0 mg/kg/injection, schedule: Q01DX005 (ip), vehicle: Klucel (hydroxypropylcellulose) (HPC)) is 93 % of control; the T/C (dose: 12.0 mg/kg/injection, schedule: Q01DX005 (ip), vehicle: Klucel (hydroxypropylcellulose) (HPC)) is 93 % of control; the T/C under setting [12] is 92 % of control; the T/C (dose: 200.0 mg/kg/injection, schedule: Q01DX005 (ip), vehicle: Klucel (hydroxypropylcellulose) (HPC)) was 88 % of control.

As to `CC1SC2(C(=O)Nc3ccc(Cl)cc32)N(c2ccc(Cl)cc2)C1=O` (stereo not given), the T/C is, setting by setting: under setting [9], 105 % of control; under setting [10], 105 % of control; under setting [11], 108 % of control.

As for `C=CCN1CCCSC1=S`, the T/C (dose: 50.0 mg/kg/injection, schedule: Q01DX009 (ip), vehicle: Klucel (hydroxypropylcellulose) (HPC)) is 106 % of control and the T/C (dose: 100.0 mg/kg/injection, schedule: Q01DX009 (ip), vehicle: Klucel (hydroxypropylcellulose) (HPC)) is 108 % of control.

Turning to `CCC(c1ccc(O)cc1)c1cc2c(cc1OCC(=O)O)OCO2` (stereo not given), the T/C is 102 % of control under setting [6], 93 % of control under setting [7] and 99 % of control under setting [8].

In the case of `Cc1cc[n+](C)c(-c2ccccc2)c1`, the T/C is 90 % of control (dose: 6.25 mg/kg/injection, schedule: Q01DX009 (ip), vehicle: saline); 104 % of control under setting [1]; 113 % of control under setting [2].

As for `NS(=O)(=O)c1cc(Cl)cc(Cl)c1O`, the T/C (dose: 50.0 mg/kg/injection, schedule: Q01DX009 (ip), vehicle: saline with Tween-80) was 100 % of control and the T/C (dose: 100.0 mg/kg/injection, schedule: Q01DX009 (ip), vehicle: saline with Tween-80) is 120 % of control.

Take `CC1([N+](=O)[O-])C(=O)C2(N3CCOCC3)CCCC2C1c1ccccc1` (stereo not given): the T/C is 99 % of control under setting [9], 96 % of control under setting [10] and 90 % of control under setting [11].

Take `CC1=N[N+](C)(C)C([O-])=C1C`: the T/C was 103 % of control under setting [6], 97 % of control under setting [7] and 100 % of control under setting [8].

Consider `OCc1ncccc1O`, for which the T/C is 99 % of control and 109 % of control under setting [2]; 108 % of control and 100 % of control and 106 % of control under setting [3]; 90 % of control and 102 % of control and 104 % of control under setting [4]; 110 % of control and 111 % of control and 97 % of control under setting [5].

As to `CC1OC(O[C@H]2/C=C/C=C/C=C/C=C/C=C/C=C/C=C/[C@H](C)[C@@H](O)[C@@H](C)[C@H](C)OC(=O)C[C@H](O)C[C@H](O)CC[C@@H](O)[C@H](O)C[C@H](O)C[C@]3(O)C[C@H](O)[C@@H](C(=O)O)[C@H](C2)O3)C(O)C(N)C1O` (stereo not given in full), the T/C is 90 % of control and 95 % of control (dose: 1.0 mg/kg/injection, schedule: Q01DX009 (ip), vehicle: saline); 119 % of control and 90 % of control (dose: 2.0 mg/kg/injection, schedule: Q01DX009 (ip), vehicle: saline); 98 % of control and 102 % of control and 105 % of control (dose: 4.0 mg/kg/injection, schedule: Q01DX009 (ip), vehicle: saline); 100 % of control and 106 % of control and 87 % of control (dose: 8.0 mg/kg/injection, schedule: Q01DX009 (ip), vehicle: saline); 122 % of control and 94 % of control (dose: 16.0 mg/kg/injection, schedule: Q01DX009 (ip), vehicle: saline).

On to `CC[C@@]1(O)C[C@H](OC2CC(N(C)C)C(O)C(C)O2)c2c(O)c3c(c(O)c2[C@H]1OC1CC(N(C)C)C(O)C(C)O1)C(=O)c1cccc(O)c1C3=O` (stereo not given in full), for which the T/C by setting is: (dose: 0.03 mg/kg/injection, schedule: Q01DX009 (ip), vehicle: other) 118 % of control; (dose: 0.03 mg/kg/injection, schedule: Q04DX003 (ip), vehicle: other) 112 % of control; (dose: 0.06 mg/kg/injection, schedule: Q04DX003 (ip), vehicle: other) 114 % of control; (dose: 0.13 mg/kg/injection, schedule: Q04DX003 (ip), vehicle: other) 124 % of control; (dose: 0.25 mg/kg/injection, schedule: Q04DX003 (ip), vehicle: other) 121 % of control; (dose: 0.5 mg/kg/injection, schedule: Q04DX003 (ip), vehicle: other) 93 % of control.

Take `CC1([CH2][Hg][I])OCCOC1[CH2][Hg][I]` (stereo not given): the T/C under setting [2] was 105 % of control.

`NC(C(=O)O)C1C=CCC1` (stereo not given): the T/C under setting [12] was 106 % of control and the T/C (dose: 100.0 mg/kg/injection, schedule: Q01DX005 (ip), vehicle: Klucel (hydroxypropylcellulose) (HPC)) was 99 % of control.
